Test system: L. major lysate proteins
Assay: Multitargeted bead mixture chemoproteomics, single concentration competition, proteome-wide
Type: binding

SMILES: Nc1nc2[nH]cc(CCc3ccc(C(=O)N[C@@H](CCC(=O)O)C(=O)O)cc3)c2c(=O)[nH]1 [PTX, pemetrexed]
- fold change relative to vehicle control (protein LMJF.35.1380, MIT[…], BETA SUBUNIT, PUTATIVE): 0.94
- fold change vs vehicle control (protein LMJF.35.1830 HY[…], CONSERVED): 0.93
- fold change vs vehicle control (protein LMJF.35.3340 6-phosphogluconate dehydrogenase): 1.01
- fold change (protein LMJF.35.3700 GIM5A PROTEIN, PUTATIVE,[…] PROTEIN, vehicle control = 1): 0.93
- fold change vs vehicle control (protein LMJF.35.3760 60S RIBOSOMAL PROTEIN L27A/L29, PUTATIVE): 1.08
- fold change relative to vehicle control (protein LMJF.35.3840, […] 2 SUBUNIT, PUTATIVE): 0.83
- fold change vs vehicle control (protein LMJF.35.3860 T-COMPLEX PROTEIN 1, ETA SUBUNIT, PUTATIVE): 0.97
- fold change (protein LMJF.35.4420 MIT[…] TRANSPORTER, PUTATIVE, vehicle control = 1): 1.01
- fold change relative to vehicle control (protein LMJF.35.4880, HY[…], CONSERVED (TPR repeat, putative)): 1.4
- fold change relative to vehicle control (protein LMJF.35.5330, ISOPENTENYL-D[…]-ISOMERASE, PUTATIVE): 1.04
- fold change relative to vehicle control (protein LMJF.36.0070, STRESS-INDUCIBLE PROTEIN STI1 HOMOLOG): 1.49
- fold change (protein LMJF.36.0480 HY[…], CONSERVED, vehicle control = 1): 0.95
- fold change vs vehicle control (protein LMJF.36.0620 HY[…], CONSERVED): 0.88
- fold change vs vehicle control (protein LMJF.36.0930 40S RIBOSOMAL PROTEIN S18, PUTATIVE): 1.13
- fold change vs vehicle control (protein LMJF.36.0990 40S RIBOSOMAL PROTEIN S10, PUTATIVE): 1.06
- fold change (protein LMJF.36.1140 SHORT CHAIN 3-HYDROXYACYL-COA DEHYDROGENASE, PUTATIVE, vehicle control = 1): 0.9
- fold change relative to vehicle control (protein LMJF.36.1260, FRUCTOSE-1,6-BI[…]): 1.12
- fold change (protein LMJF.36.1340 N-ACETYLT[…] NAT1, PUTATIVE, vehicle control = 1): 0.98
- fold change vs vehicle control (protein LMJF.36.1370 TRANSITIONAL ENDOPLASMIC RETICULUM ATPASE, PUTATIVE,VALOSIN-CONTAINING PROTEIN HOMOLOG): 0.94
- fold change vs vehicle control (protein LMJF.36.1650 […] 5 SUBUNIT, PUTATIVE): 1.01
- fold change relative to vehicle control (protein LMJF.36.2380, STEROL 24-C-METHYLTRANSFERASE, PUTATIVE): 0.95
- fold change vs vehicle control (protein LMJF.36.2950 SUCCINYL-COA LIGASE GDP-FORMING] BETA-CHAIN, PUTATIVE): 0.96
- fold change vs vehicle control (protein LMJF.36.3210 14-3-3 PROTEIN-LIKE PROTEIN): 0.92
- fold change vs vehicle control (protein LMJF.36.3410 SHORT CHAIN DEHYDROGENASE-LIKE PROTEIN): 1.04
- fold change (protein LMJF.36.3460 HY[…], CONSERVED (NIPSNAP, putative), vehicle control = 1): 0.94
- fold change (protein LMJF.36.3580 HY[…], CONSERVED (Protein of unknown function (DUF2009), putative), vehicle control = 1): 1.01
- fold change (protein LMJF.36.3750 40S RIBOSOMAL PROTEIN S27-1, PUTATIVE, vehicle control = 1): 0.86
- fold change vs vehicle control (protein LMJF.36.3910 S-ADENOSYLHO[…]): 0.95
- fold change vs vehicle control (protein LMJF.36.5010 40S RIBOSOMAL PROTEIN SA, PUTATIVE): 1.03
- fold change vs vehicle control (protein LMJF.36.5130 HY[…], CONSERVED): 0.91
- fold change vs vehicle control (protein LMJF.36.5150 HY[…], CONSERVED): 0.87
- fold change relative to vehicle control (protein LMJF.36.5380, NADH DEHYDROGENASE, PUTATIVE): 0.93
- fold change vs vehicle control (protein LMJF.36.5390 PHOSPHORIBOSYLPYR[…], PUTATIVE): 0.98
- fold change vs vehicle control (protein LMJF.36.5620 ISOLEUCYL-TRNA SYNTHETASE, PUTATIVE): 0.96
- fold change (protein LMJF.36.6430 PROTEIN TRANSPORT PROTEIN SEC23-LIKE PROTEIN, vehicle control = 1): 0.86
- fold change vs vehicle control (protein LMJF.36.6760 HY[…], CONSERVED): 0.92
- fold change relative to vehicle control (protein LMJF.[…], MIT[…] BETA SUBUNIT, PUTATIVE): 0.97
- fold change relative to vehicle control (protein LMJF.[…], POLY(A) EXPORT PROTEIN, PUTATIVE): 1.13
- fold change (vs vehicle control, protein LINJ.20.0630 CYTIDINE TR[…], PUTATIVE,CTP SYNTHASE, PUTATIVE): 0.98
- fold change (vs vehicle control, protein LINJ.20.1390 COATOMER BETA SUBUNIT, PUTATIVE): 0.66
- fold change (vs vehicle control, protein LMJF.05.1140 VACUOLAR ATPASE SUBUNIT-LIKE PROTEIN): 0.84
- fold change (vs vehicle control, protein LMJF.07.1090 DELTA-5 FATTY ACID DESATURASE): 0.92
- fold change (vs vehicle control, protein LMJF.09.0220 HY[…], CONSERVED): 0.65
- fold change (vs vehicle control, protein LMJF.11.1030 HY[…], CONSERVED): 0.9
- fold change (vs vehicle control, protein LMJF.14.0640 FATTY ACID ELONGASE, PUTATIVE): 0.83
- fold change (vs vehicle control, protein LMJF.14.0705 FATTY ACID ELONGASE, PUTATIVE): 0.85
- fold change (vs vehicle control, protein LMJF.14.1120 KINESIN K39, PUTATIVE): 0.88
- fold change (vs vehicle control, protein LMJF.16.1610 PROHIBITIN): 1.07
- fold change (vs vehicle control, protein LMJF.17.0010 HY[…], CONSERVED): 0.88
- fold change (vs vehicle control, protein LMJF.18.1130 RAS-RELATED PROTEIN RAB-5, PUTATIVE): 0.65
- fold change (vs vehicle control, protein LMJF.19.1420 CYSTEINE PEPTIDASE A (CPA)): 0.88
- fold change (vs vehicle control, protein LMJF.21.0280 HY[…], CONSERVED): 0.88
- fold change (vs vehicle control, protein LMJF.22.1560 40S RIBOSOMAL PROTEIN L14, PUTATIVE): 0.87
- fold change (vs vehicle control, protein LMJF.23.1220 T-COMPLEX PROTEIN 1, GAMMA SUBUNIT, PUTATIVE): 0.94
- fold change (vs vehicle control, protein LMJF.24.0370 ASPARTATE AMINOTRANSFERASE, PUTATIVE): 1.06
- fold change (vs vehicle control, protein LMJF.25.1770 ENOYL-COA REDUCTASE, PUTATIVE): 1.06
- fold change (vs vehicle control, protein LMJF.26.0170 60S RIBOSOMAL PROTEIN L7, PUTATIVE): 0.79
- fold change (vs vehicle control, protein LMJF.26.1550 TRIFUNCTIONAL ENZYME ALPHA SUBUNIT, MIT[…]-LIKE PROTEIN): 1.12
- fold change (vs vehicle control, protein LMJF.26.1610 PROLINE OXIDASE, MIT[…]-LIKE PROTEIN): 0.89
- fold change (vs vehicle control, protein LMJF.28.1950 X-PRO, DIPEPTIDYL-PEPTIDASE,SERINE PEPTIDASE, CLAN SC, FAMILY S15, PUTATIVE): 0.74
- fold change (vs vehicle control, protein LMJF.31.1070 BIOTIN/LIPOATE PROTEIN LIGASE-LIKE PROTEIN): 0.65
- fold change (vs vehicle control, protein LMJF.32.1370 HY[…], CONSERVED): 0.79
- fold change (vs vehicle control, protein LMJF.34.0490 IMPORTIN BETA-1 SUBUNIT, PUTATIVE): 0.77
- fold change (vs vehicle control, protein LMJF.34.4060 UBIQUITIN HYDROLASE, PUTATIVE,CYSTEINE PEPTIDASE, CLAN CA, FAMILY C19, PUTATIVE): 0.78
- fold change (vs vehicle control, protein LMJF.36.1600 […] 1 SUBUNIT, PUTATIVE): 0.85
- fold change (vs vehicle control, protein LMJF.[…] RIBOSOMAL PROTEIN S7, PUTATIVE): 1.19
